Laboratory results taken from patent EP0359745B1, “GROWTH FACTOR RECEPTOR” (IMPERIAL CANCER RESEARCH TECHNOLOGY LIMITED, priority 1987, dated 1988).
Non-standard residues stand in square brackets, D forms with d. Residues, ends and D or L forms follow the SMILES beside them.

Legend:
Mr 75000-85000 protein [1] = target: T1, Mr 75000-85000 protein (Mus musculus, UniProt P21729); assay: ¹²⁵I-GRP affinity labelling (EGS cross-linking) of the Mr 75000-85000 protein in Swiss 3T3 cells, SDS-PAGE and scanning densitometry; type: binding; set-up: endogenous in cells; host or cells: Swiss 3T3 cells (confluent, quiescent, intact); settings: 2.5 h; read-out: Mr 75000-85000 protein % of control
T1 sequence (P21729 whole entry): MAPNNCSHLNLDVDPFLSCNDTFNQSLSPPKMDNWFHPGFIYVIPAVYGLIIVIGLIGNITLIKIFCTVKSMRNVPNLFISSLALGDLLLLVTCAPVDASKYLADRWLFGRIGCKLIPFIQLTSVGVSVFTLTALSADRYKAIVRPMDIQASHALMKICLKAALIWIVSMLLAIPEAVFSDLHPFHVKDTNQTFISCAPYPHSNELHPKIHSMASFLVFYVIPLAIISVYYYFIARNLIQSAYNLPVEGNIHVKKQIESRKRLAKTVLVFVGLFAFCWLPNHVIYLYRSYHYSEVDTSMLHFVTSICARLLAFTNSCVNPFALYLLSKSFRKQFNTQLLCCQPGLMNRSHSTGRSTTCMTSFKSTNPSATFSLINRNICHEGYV
Description: (§1) After 2.5 h the cells were washed three times at 15°C with phosphate buffered saline (PBS) ad then incubated for 15 min at 15°C In 1 ml of binding medium, pH 7.4 In the presence of the appropriate cross-linking agent at the concentration indicated. The cross-linking agents (EGS, DSS, DSP and BSCOES) were dissolved in dimethyl sulphoxide immediately prior to use and were added to medium to give a final concentration of dimethylsulphoxide of 1-2%. The cultures were rapidly rinsed twice with PBS at 4°C and solubilized in 0.1ml of 2 x sample buffer 0.2 M Tris-HCl, pH 6.8, 10% (w/v) glycerol, 6% sodium dodecyl sulphate (SDS) (w/v) 4% β-mercaptoethanol (v/v) and 2 mM ethylenediaminetetraacetic acid. Samples were immediately heated at 100°C for 3-5 min and analysed by either one or two-dimensional gel electrophoresis.
Slab gel electrophoresis was performed using 7.5% acrylamide in the separating gel ad 5% in the stacking gel, ad 0.1% SDS (31). […] The Mr 75000-85000 band from autoradiograms was scanned using a Joyce-Loebl double beam densitometer and the areas under specific peaks were measured with a Hewlett-Packard digitizer.
Confluent cultures of 3T3 cells were incubated with 5 nM ¹²⁵I-GRP in the presence of varying concentrations of non-radioactive ligand at 15°C for 2.5 h. […] The cells were then solubilized and samples were analyzed by SDS-PAGE. […]

GRP receptor = target: T2, GRP receptor (Mus musculus, UniProt P21729); assay: specific [¹²⁵I]GRP binding to intact Swiss 3T3 cells; settings: read-out: Half-maximal inhibition of binding
T2 construct: endogenous in cells; host or cells: Swiss 3T3 cells (mouse fibroblasts)
T2 sequence (P21729 whole entry): as above
Description: (§2) Cell culture procedure (33), assays of DNA synthesis by ³H-thymidine incorporation (34) ad ¹²⁵I-GRP binding to intact cells (13) were performed as described previously.
(§3) Figure 4. […] Values are expressed as percentage of the specific binding obtained in the absence of antagonists. […] Each point represents the mean of 3 determinations. […] Specific binding (B) is expressed in pmol/10⁶ cells and is shown in a double-reciprocal plot. Each point represents the mean of duplicate determinations. […] After 2 hours, the cultures were washed twice with binding medium then incubated in 1 ml containing 6 mM ethylene glycol bis (succinimidylsuccinate) (EGS) at pH 7.4 for 15 minutes at 15°C. The cultures were then washed twice with cold phosphate-buffered saline and solubilised in 0.1 ml of 2x sample buffer, then immediately heated at 100°C for 5 minutes and electrophoresed on a 10% polyacrylamide gel.

Swiss 3T3 cells [2] = assay: GRP-stimulated rise in cytosolic Ca²⁺ concentration (fura-2 fluorescence) in Swiss 3T3 cells; type: cell-based, mouse; settings: GRP (1 nM)
Description: (§4) Figure 5. […] Left: Effects of antagonists on [Ca²⁺]i. Quiescent Swiss 3T3 cells grown on Cytodex 2 beads were washed twice with DMEM and incubated for 10 minutes with fura-2 tetracetoxymethyl ester at 1 »m, then washed three times and suspended in 2 ml of electrolyte solution (6) in the fluorimeter at 37°C and stirred. Fluorescence was recorded continuously in a Perkins-Elmer LS5 luminescence spectrometer with an excitation wavelength of 335 nm and emission wavelength of 510 nm. After a period of equilibration, the following additions were made: solvent, S; antagonist A at 5 »m, A, 5 and 20 »m, A, 20; antagonist D at 5»m, D, 5. […] Values are expressed as percentages of the specific binding obtained with [¹²⁵I]EGF alone at 0.2 nM. The non-specific binding was obtained by the addition of 500-fold excess of unlabelled EGF. Each point represents the mean of 6 determinations.

H128 = assay: growth of SCLC cell line in serum-free medium (cell number, Coulter Counter); type: cell-based; settings: antagonist at 150 »m, reversed by washing
Description: (§5) Figure 6. […] Stock cultures of cell lines H69, H128 and H417 were maintained in RPMI 1640 medium with 10% fetal bovine serum (heat inactivated) in a humidified atmosphere of 10% CO₂:90% air at 37°C. They were passaged every 7 days. Identical growth was obtained in the serum-free medium of RPMI 1640 supplemented with HITES (29) (hydrocortisone, 10 nM; insulin, 5 »g/ml; transferrin, 100 »g/ml; 17β-estradiol, 10 nM; sodium selenite, 30 nM) and 0.25% bovine serum albumin. […] Cell number was determined at intervals over 14 days in a Coulter Counter after disaggregation of cell clumps by syringing through 19G and 21G needles. Each point represents the mean of 3 determinations.

H417 = assay: as above; type: cell-based; settings: antagonist at 150 »m, reversed by washing
Description: as §5

H69 cells = assay: as above; type: cell-based
Description: as §5
Figure 7. Inhibition of SCLC growth in vitro by [DPro²]spantide and [DPhe⁵]spantide is concentration-dependent. Cultures of H69 cells were washed twice with RPMI 1640 medium then incubated in serum-free medium (as in Figure 6) in the absence (●) or presence of various concentrations of [DPro²]spantide (o,A) and [DPhe⁵]spantide (△,D). Cell number was determined in a Coulter Counter after disaggregation of cell clumps by syringing through 19G and 21 G needles. Samples were incubated for 13 days, when the controls (inset) had achieved 10-fold increase in number, indicated by the arrow. Each point represents the mean (± standard deviation) of 5 determinations.

Mr 75000-85000 protein [3] = target: T1, Mr 75000-85000 protein; assay: ¹²⁵I-GRP affinity labelling (EGS cross-linking) of the Mr 75000-85000 protein in Swiss 3T3 cells, SDS-PAGE and scanning densitometry; type: binding; set-up: endogenous in cells; host or cells: Swiss 3T3 cells (mouse fibroblasts)
Description: as §1
Slab gel electrophoresis was performed using 7.5% acrylamide in the separating gel ad 5% in the stacking gel, ad 0.1% SDS (31). After electrophoresis gels were stained, destained and dried down onto paper for autoradiography with Fuji X-ray film (Fuji Photo Film Co. Ltd. Japan). Dried gels were exposed to film for 4-8 days. Two-dimensional gel electrophoresis was performed as described by O'Farrell (32) using isoelectric focusing in the 1st dimension and SDS-polyacrylamide gel electrophoresis (SDS-PAGE) (8% polyacrylamide) in the second dimension. The samples prepared for isoelectric focusing containing 1.4% LKB ampholytes, pH 5-7, plus 0.6% LKD ampholytes, pH 3.5-10, 6M urea, and 2% Nonidet P-40. The Mr 75000-85000 band from autoradiograms was scanned using a Joyce-Loebl double beam densitometer and the areas under specific peaks were measured with a Hewlett-Packard digitizer.
After this time some cells were washed four times with cold (4°C) PBS supplemented with 1 mg/ml BSA, solubilized and total cell associated radioactivity was then determined in a gamma counter. […] The cells were then solubilized and samples were analyzed by SDS-PAGE. After electrophoresis, gels were dried, exposed to film and scanned as described in Materials and Methods. The areas under the individual peaks for the Mr 75000-85000 protein are shown as a function of the concentration of the unlabelled peptide and are expressed as a percentage of the control. […] The level of the Mr 75000-85000 protein expressed in arbitrary units is shown as a function of the concentration of the labelled ligand. Inset: autoradiogram of the gel used for scanning; the Mr 75000-85000 and 160,000 bands are indicated by arrows. All other experimental details were as described in Materials and Methods.
as §3
After the incubation period cultures were treated with 6 mM EGS as described in Materials and Methods. Each value is expressed as a percentage of the level of the Mr 75000-85000 protein obtained with no additons (-). Other experimental details are as described in Materials and Methods.

Swiss 3T3 cells [4] = assay: GRP-induced DNA synthesis ([³H]thymidine incorporation) in Swiss 3T3 cells; type: cell-based, mouse
Description: as §2
Figure 3. Inhibition of GRP-induced DNA synthesis by [DPro²]spantide (A) and [DPhe⁵]spantide (D). […] After 40 hours DNA synthesis was estimated by [³H]thymidine incorporation into acid-precipitable material. […] Each point represents the mean of duplicate determinations. […] Values are expressed as a percentage of [³H]thymidine incorporation obtained in the absence of antagonists (100% = 8.6 x 10⁵ cpm per dish). Each point represents the mean of 4 determinations.

Swiss 3T3 cells [5] = assay: reversal of the inhibition of [¹²⁵I]EGF binding induced by GRP in Swiss 3T3 cells; type: cell-based, mouse; settings: read-out: Half-maximal reversal of inhibition (of [¹²⁵I]EGF binding by GRP); [¹²⁵I]EGF 0.2 nM, GRP 3.6 nM, 1 hour, 37°C
Description: as §4

| SMILES | remaining activity at 2 µM (Mr 75000-85000 protein [1]) | IC50 (GRP receptor) | rise in [Ca²⁺]i caused by the addition of GRP (Swiss 3T3 cells [2]; antagonist at 5 »m) | rise in [Ca²⁺]i caused by the addition of GRP (Swiss 3T3 cells [2]; antagonist at 20 »m) | rate of growth in serum-free medium (H128) | rate of growth in serum-free medium (H417) | rate of growth in serum-free medium (H69 cells; H69, antagonist at 150 »m, reversed by washing) | IC50 (H69 cells; H69 cells, serum-free medium, 13 days, read-out: half-maximal effect (inhibition of growth)) | IC50 (Mr 75000-85000 protein [3]; read-out: Half-maximal inhibition (affinity-labelling of the Mr 75000-85000 protein)) | cross-linking of ¹²⁵I-GRP / level of the Mr 75000-85000 protein (in words) (Mr 75000-85000 protein [3]; summary of Table 1, saturating concentrations of the other mitogens) | Mr 75000-85000 protein % of control (Mr 75000-85000 protein [3]; ¹²⁵I-GRP (0.5 nM), 15°C, 2.5 h, 6 mM EGS, additions: GRP 360 nM, GRP (14-27) 30 nM, bombesin 30 nM, litorin 92 nM, neuromedin B 220 nM, [D-Arg¹,D-Pro²,D-Trp^7,9,Leu¹¹] substance P 100 »M, GRP (1-16) 3230 nM, PDGF 5 nM, EGF 83 nM, vasopressin 1000 nM, insulin 1 »g/ml, phorbol 12,13 dibutyrate 2000 nM, substance P 740 nM, substance K 880 nM, somatostatin 610 nM, neurotensin 600 nM) | IC50 (Swiss 3T3 cells [4]; GRP 3.6 nM, 40 hours, Figure 3 right, read-out: Half-maximal inhibition of DNA synthesis) | concentration of GRP required to produce half-maximal stimulation of DNA synthesis (Swiss 3T3 cells [4]; antagonist at 20 »m, Figure 3 left) | EC50 (Swiss 3T3 cells [5]) |
| --- | --- | --- | --- | --- | --- | --- | --- | --- | --- | --- | --- | --- | --- | --- |
| CCCC(=O)O[C@@H]1[C@@H](C)[C@@]2(O)[C@@H](C=C(CO)C[C@]3(O)C(=O)C(C)=C[C@@H]23)[C@@H]2C(C)(C)[C@]12OC(=O)CCC [Phorbol 12,13-dibutyrate] | 99% | – | – | – | – | – | – | – | – | – | – | – | – | – |
| CC(C)C[C@H](NC(=O)[C@H](CC(C)C)NC(=O)[C@@H](Cc1c[nH]c2ccccc12)NC(=O)[C@H](Cc1ccccc1)NC(=O)[C@@H](Cc1c[nH]c2ccccc12)NC(=O)[C@H](CCC(N)=O)NC(=O)[C@H](CCC(N)=O)NC(=O)[C@@H]1CCCN1C(=O)[C@H](CCCCN)NC(=O)[C@H]1CCCN1C(=O)[C@H](N)CCCNC(=N)N)C(N)=O [[DPro²]spantide, D-Arg-D-Pro-Lys-Pro-Gln-Gln-D-Trp-Phe-D-Trp-Leu-Leu-NH₂] (H-[dR][dP]KPQQ[dW]F[dW]LL-NH2) | – | 14 µM | not | prevented | abolished | abolished | abolished | 82 µM | 20 µM | markedly inhibited | 9.7 % of control | 118 µM | only a slight effect | 30 µM |
